Assay: gradient 5% acetonitrile 3 min, to 50% in 2 min, to 85% in 15 min, held 3 min, 100 µL/min
Conditions: column: Zorbax Extend-C18 2.1 x 50 mm; eluents: water / acetonitrile, 0.1% formic acid
Outline: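 Retention times of pure standards were taken from adduct peaks that were selected by computer and manually inspected. Over 3 months, mixtures of ~100 molecules were run by HPLC–quadrupole time-of-flight mass spectrometry in positive and negative ionization mode. The Zorbax Extend-C18 column (2.1 × 50 mm, 1.8 μm) ran at 100 μL/min in water and acetonitrile, each containing 0.1% formic acid, with 40 μL dead volume and 900 μL dwell volume.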

Compound | RP-LC retention time
COc1ccc(-n2cc(C(=O)OCc3cccnc3)c3ccccc3c2=O)cc1 | 745 s
O=c1ccc(-c2ccc(F)cc2)nn1CCc1nc(-c2ccccc2Br)no1 | 1010 s
CCOC(=O)c1cccc(Nc2c(-c3ccccc3)nc3cnccn23)c1 | 875 s
COc1ccc(-c2cc(C(=O)N3CCC(NC(=O)C4CC4)CC3)[nH]n2)cc1 | 652 s
O=C(Cn1nc(S(=O)(=O)c2cccc(F)c2)ccc1=O)N1CCN(c2ccccc2F)CC1 | 885 s
O=C(NCCc1c[nH]c2ccccc12)c1cc(-c2cccnc2)nc2ccccc12 | 741 s
O=C(NCCc1c[nH]c2ccccc12)C1CCN(c2ccncc2)CC1 | 610 s
CN(C)c1ccc(CNC(=O)c2cc3n(n2)CC(C)(C(=O)NCc2ccccc2)N(C)C3=O)cc1 (centres undefined) | 607 s
Cc1nc(-c2ccccc2)nn1C1CCN(S(=O)(=O)c2cccs2)C1 (centres undefined) | 816 s
O=C1NCCOCCCN(C(=O)Nc2ccccc2)[C@H]2CCC[C@@H]12 | 741 s
Nc1ncnc2c1nnn2C1OC(CO)C(O)C1O (centres undefined) | 513 s
CCC1CCCCN1CCCNC(=O)CCc1cc2cc(C)ccc2[nH]c1=O (centres undefined) | 600 s
COc1ccc(-c2nc(C)cc(C)c2CNS(=O)(=O)c2cccc(C)c2)cc1 | 668 s
CCCNC(=O)C1CCN(c2ccc(SCC(=O)Nc3cc(Cl)ccc3OC)nn2)CC1 | 730 s
CCOc1ccc(NC(=O)c2[nH]c3cc(C)sc3c2CN2CCOCC2)cc1 | 1160 s
Cc1ccc(-c2noc(Cc3nnc(-c4ccc(C)cc4)o3)n2)cc1 | 1120 s
Cc1cc(C)c(C(=O)N2CCC(CC(=O)NCCCN3CCCC3)CC2)[nH]1 | 586 s
COc1ccc2c(c1)C1(CCN(C(=O)C(C)C)C1)C(=O)N2 (centres undefined) | 646 s
O=C(NCCn1c(=O)n(Cc2ccccc2)c2cccnc21)C1CCCC1 | 760 s
CCCCN1C(=O)C(C)(C(=O)NC2CCN(Cc3ccccc3)CC2)Oc2cccnc21 (centres undefined) | 694 s

Compound | RP-LC retention time
Cc1nn(-c2cc(N3CCCC3)ncn2)c(C)c1CCC(=O)N1CCN(c2ccccn2)CC1 | 587 s
Cn1c(C2CCN(C(=O)c3ccc(Br)cc3)CC2)cc(=O)n2nccc12 | 679 s
Cc1ccn2cc(-c3ccc(NS(=O)(=O)c4cccc(Cl)c4)cc3)nc2n1 | 679 s
CC1CCCCN1CCCNC(=O)Cn1ccc2cc(S(=O)(=O)N3CCCCCC3)ccc21 (centres undefined) | 682 s
CN1CCN(c2cccc(Nc3nc4c(-c5ccc(S(C)(=O)=O)cc5)cccn4n3)c2)CC1 | 675 s
Cn1nc(-c2nnc(-c3ccccc3)o2)c2c1CCN(S(=O)(=O)c1cccc(Cl)c1)C2 | 990 s
CN(C)c1nccnc1OC1CCN(C(=O)c2ccccc2Br)C1 (centres undefined) | 752 s
O=C(c1ccc2ncccc2c1)N1C[C@@H](CO)[C@H](c2ccccn2)C1 | 543 s
Cc1ccc(C(=O)Nc2cc(-c3cccnc3)no2)cc1 | 764 s
CCCc1nc2cccnc2n1C1CCN(C(=O)c2ccc(C)c(N3CCCC3=O)c2)C1 (centres undefined) | 580 s
COc1ccc(Cn2nc3c(S(=O)(=O)N4CCCCCC4)cccn3c2=O)cc1F | 941 s
O=C(Cn1ccn2nc(-c3ccccc3)c(CO)c2c1=O)Nc1ccccc1 | 781 s
O=C(NC1CCCCC1)N1CCC2(CC1)NCc1ccccc1-n1ccnc12 | 608 s
O=C(c1n[nH]c(=O)c2ccccc12)N1CCCC1c1nc(CCOCC2CCCC2)no1 (centres undefined) | 848 s
CSc1ccc(CNC(=O)C2CCCN(c3nc4c(s3)c(C)nn4-c3ccccc3)C2)cc1 (centres undefined) | 1150 s
CCCNC(=O)c1nc2cc(C)c(C)cc2n(C)c1=O | 747 s
CCCCCn1c(=O)c2ccccc2n(Cc2nc(-c3ccc(OC)cc3)no2)c1=O | 1210 s
C#CCSc1n[nH]c(-c2ccco2)n1 | 719 s
O=S(=O)(c1cccs1)N1CCN(c2cnn3c(C4CC4)nnc3c2)CC1 | 683 s
COc1ccc(S(=O)(=O)NC2CCN(C(=O)C3CCC3)CC2)cc1 | 750 s

Compound | RP-LC retention time
CCn1c(=O)c(C(=O)NCc2cccc(OC)c2)nc2cccnc21 | 780 s
COc1cccc(N2CCN(c3ccnc(SCC(=O)Nc4cc(OC)ccc4OC)n3)CC2)c1 | 818 s
Cc1cnc(C2CN(C(=O)C(C)C)C2)n1CC1CC1 | 562 s
CCCOc1nn(CCC)cc1C(=O)N1CCC(C(=O)OC)CC1 | 736 s
CCc1nn2c(CNC(=O)c3ccc(Cl)cc3)c(-c3ccccc3)nc2s1 | 974 s
Cc1ccc(C)c(-c2coc(-c3ccc(NC(=O)CC(C)C)cc3)n2)c1 | 1260 s
CCn1ccc2c(cc(C(=O)Nc3ccc(OC)c(Cl)c3)n2C)c1=O | 1330 s
Cc1ccc(CNC(=O)C2(C)CCCN(C(=O)Nc3ccc(C)cc3C)C2)cc1 (centres undefined) | 947 s
CC(C(=O)NCCN1CCCC1)n1c2ccccc2c2cnn(C)c(=O)c21 (centres undefined) | 607 s
Cn1nc(-c2nnc(-c3ccccc3Cl)o2)c2c1CCN(C(=O)COc1ccc(F)cc1)C2 | 891 s
Cc1ccccc1NC(=O)Nc1ccc2nncn2c1 | 668 s
CCN1CCN(CC2CCN(S(=O)(=O)Cc3ccc(Cl)cc3)CC2)CC1 | 610 s
CCCCOc1ccc(-c2nc(C3CC(=O)N(c4ccc(Cl)cc4)C3)no2)cc1 (centres undefined) | 1350 s
Cc1cc(C(=O)NCC2CCCO2)c2cccc(C)c2n1 (centres undefined) | 616 s
O=C(NCc1ccc2c(c1)OCO2)C1CCN(c2cn[nH]c(=O)c2)C1 (centres undefined) | 627 s
COc1ccccc1-c1nc2nccc(-c3ccccc3)n2n1 | 862 s
O=C(NCc1ccncc1)C1CCN(c2ncnc3c2oc2ccccc23)CC1 | 593 s
CCC(C)NC(=O)N1CC(c2nc(CCOCc3ccccc3)no2)C1 (centres undefined) | 812 s
CCCS(=O)(=O)N1CCOc2ccc(NC(=O)NCC)cc2C1 | 696 s

The next lines start with the values.

RP-LC retention time | Compound
844 s | COc1ccc(NC(=O)c2cnc3c(c2)c(=O)n(C)c(=O)n3-c2ccccc2)c(OC)c1
837 s | O=C(Nc1cccc(Cl)c1)C1CCN(C(=O)C2Sc3ccccc3NC2=O)CC1 (centres undefined)
503 s | CCNC(=O)[C@H]1O[C@@H](n2cnc3c(N)nc(NCCc4ccc(CCC(=O)O)cc4)nc32)C(O)[C@H]1O (some centres undefined)
778 s | N#Cc1ccc(C(=O)NC(Cc2ccccc2)c2nnc(N3CCCC3)o2)cc1 (centres undefined)
647 s | CCCCn1nnnc1NCc1ccc2c(c1)n(C)c(=O)n2C
1160 s | CCc1nc2cc(-c3noc(-c4cncc(Br)c4)n3)ccc2o1
567 s | COC(=O)c1ccc(NC(=O)C(=O)NCC2CCN(Cc3cccs3)CC2)cc1
743 s | O=C(Nc1nsc(-c2ccccc2)n1)c1cccs1
703 s | CCOC(=O)C1CCN(C(=O)C2CN(C(=O)c3ccncc3)CC23CCCCC3)CC1 (centres undefined)
740 s | Cc1nc(-c2cccnc2)nc2c1CCC(=O)N2Cc1cccs1
950 s | Cc1cc(-c2nnc(-c3ccc(F)cc3)o2)c(C)n1CC(=O)NCc1ccccc1F
904 s | Cc1cc2c(c(=O)n(-c3ccccc3)c(=O)n2CC(=O)Nc2cccc(C(F)(F)F)c2)n1C
733 s | CC(=O)N1c2ccc(S(=O)(=O)N3CCC(C(=O)NC(C)c4ccccc4)CC3)cc2CC1C (centres undefined)
782 s | O=C(c1ccc(OCC2CCN(C(=O)C3CCC3)CC2)cc1)N1CCCC1
648 s | O=C(NC1CCCCCCC1)C1CCN(C(=O)c2cc(-c3ccncc3)n[nH]2)CC1
869 s | COc1ccc(F)cc1S(=O)(=O)Nc1ccc(CC(=O)NCC(F)(F)F)cc1
684 s | O=C([C@@H]1C[C@H](F)CN1C(=O)c1ccc(F)cc1)N1CCCCC1
834 s | CCCC(=O)N1CCCN(C2=NS(=O)(=O)C(c3ccc(Cl)cc3)=C2C)CC1
865 s | O=C(NCc1cccc(Cl)c1)C1CCN(c2nnc(-c3ccccc3)o2)CC1
737 s | CNC(=O)c1sc2nc(-c3ccc(OC)cc3)c(NC(C)(C)C)n2c1C
729 s | CCn1cnc(S(=O)(=O)N2CCC(C(=O)NCc3ccc(Cl)cc3)CC2)c1
579 s | O=C(NC1CCN(Cc2ccccc2)CC1)c1ccc2c(=O)n3c(nc2c1)CCCC3
979 s | CCCn1c(-c2cccc(C(=O)NCc3c(C)cc(C)cc3C)c2)nc2cccnc21
1040 s | COc1ccc(C(=O)Nc2nccnc2C(=O)NC2CCCCC2)cc1
873 s | COc1ccc(Cl)cc1S(=O)(=O)N1C[C@@H]2C[C@H]1C[C@@H]2NC(=O)c1ccccc1
620 s | CN1CCC(OC2CCN(S(=O)(=O)c3ccccc3F)CC2)CC1
654 s | CCOC(=O)c1cccc(Nc2nc(C)nc3c2CCC3)c1
753 s | O=C(Cc1nnc(-c2cnccn2)o1)Nc1ccc(Cl)cc1Cl
952 s | CCOc1ccc(-c2ccc(=O)n(CCc3nc(-c4cccc(OC)c4OC)no3)n2)cc1
556 s | CCn1cnc(S(=O)(=O)N2CCC(C(=O)N3CCN(c4ccccn4)CC3)CC2)c1

— the METLIN SMRT retention time set (Domingo-Almenara et al. 2019)
